This is an account of results in US20250340574A1, “MODULATORS OF CYSTIC FIBROSIS TRANSMEMBRANE CONDUCTANCE REGULATOR” (Vertex Pharmaceuticals Incorporated, priority 2022, published 2025).

T1 sequence (P13569 with tags, fused parts or gaps DEL508-508): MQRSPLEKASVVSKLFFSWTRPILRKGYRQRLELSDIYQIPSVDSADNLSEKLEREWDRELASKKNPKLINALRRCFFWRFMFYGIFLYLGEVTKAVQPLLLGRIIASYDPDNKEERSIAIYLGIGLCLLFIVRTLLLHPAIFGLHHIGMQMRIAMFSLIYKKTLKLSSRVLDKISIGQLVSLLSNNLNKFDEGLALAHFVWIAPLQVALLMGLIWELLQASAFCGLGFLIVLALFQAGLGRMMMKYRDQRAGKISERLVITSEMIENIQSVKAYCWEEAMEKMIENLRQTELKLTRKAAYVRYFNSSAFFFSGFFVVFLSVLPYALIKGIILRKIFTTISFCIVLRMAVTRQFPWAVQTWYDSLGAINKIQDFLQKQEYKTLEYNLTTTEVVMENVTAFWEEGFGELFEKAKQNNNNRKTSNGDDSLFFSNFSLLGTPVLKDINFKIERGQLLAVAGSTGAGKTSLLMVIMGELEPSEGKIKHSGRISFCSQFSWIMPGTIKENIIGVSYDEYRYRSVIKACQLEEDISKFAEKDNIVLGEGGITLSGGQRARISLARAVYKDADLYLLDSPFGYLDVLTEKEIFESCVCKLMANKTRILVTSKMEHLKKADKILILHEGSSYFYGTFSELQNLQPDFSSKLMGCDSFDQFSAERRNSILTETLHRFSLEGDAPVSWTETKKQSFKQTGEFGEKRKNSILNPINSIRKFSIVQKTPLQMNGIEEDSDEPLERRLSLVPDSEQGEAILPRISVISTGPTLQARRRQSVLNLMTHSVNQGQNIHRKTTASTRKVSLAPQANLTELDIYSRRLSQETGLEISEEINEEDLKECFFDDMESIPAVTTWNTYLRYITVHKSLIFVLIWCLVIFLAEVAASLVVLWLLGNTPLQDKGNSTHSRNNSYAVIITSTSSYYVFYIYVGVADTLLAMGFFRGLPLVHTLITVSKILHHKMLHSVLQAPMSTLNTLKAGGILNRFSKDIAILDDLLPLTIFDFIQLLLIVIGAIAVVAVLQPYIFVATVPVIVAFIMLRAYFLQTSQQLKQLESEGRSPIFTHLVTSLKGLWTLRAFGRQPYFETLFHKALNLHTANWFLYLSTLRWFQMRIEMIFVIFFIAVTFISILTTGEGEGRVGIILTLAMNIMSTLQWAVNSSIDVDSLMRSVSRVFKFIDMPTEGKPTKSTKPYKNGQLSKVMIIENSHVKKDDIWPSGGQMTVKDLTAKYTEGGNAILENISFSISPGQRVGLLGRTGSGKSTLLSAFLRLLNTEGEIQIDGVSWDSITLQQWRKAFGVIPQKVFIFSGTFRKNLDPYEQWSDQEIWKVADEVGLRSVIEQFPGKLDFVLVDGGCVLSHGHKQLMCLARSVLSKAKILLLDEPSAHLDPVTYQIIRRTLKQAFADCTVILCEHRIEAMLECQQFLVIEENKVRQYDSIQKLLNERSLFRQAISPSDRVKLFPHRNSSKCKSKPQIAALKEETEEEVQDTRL

The first assay has as its target T1, CFTR (F508del/MF-HBE cells) (Homo sapiens, UniProt P13569, DEL508-508).
T1 construct: human bronchial epithelial (HBE) cells derived from CF subjects heterozygous for F508del and a minimal function CFTR mutation (F508del/MF-HBE); endogenous in cells; host or cells: Primary human bronchial epithelial cells from CF subjects (F508del/MF genotype), differentiated at an air-liquid interface
Briefly: Ussing chamber assay of CFTR-mediated short-circuit currents, Assay D (single concentration of 1 μM). The assay is classed as cell-based. Particulars: with 44 nM potentiator and 18 μM Tezacaftor, 18-24 hours, 20% human serum. The essentials:
(§1)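 F508del/MF-HBE cells grown at air-liquid interface were incubated 18-24 h at 37 °C in 20% human serum with correctors plus 18 μM tezacaftor and a fixed partner compound (33 nM for concentration series, 44 nM at 1 μM). ISC was read at 0 mV after 20 μM forskolin, minus the post-inhibitor current.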
For the compound `Cc1cccc(C)c1-c1nc2nc(c1C)OC[C@@H](CC(C)(C)C)N(Cc1cnc3oc(C(C)C)cc3n1)C(=O)c1cccc(c1)S(=O)(=O)N2` [Compound I-110], the “D activity at 1 μM (%)” value is “+++ (+++ is >60%)”.

For `Cc1cccc(C)c1-c1cc2nc(n1)NS(=O)(=O)c1cccc(c1)C(=O)N(Cc1ncc3oc(C(C)(C)C)cc3n1)[C@H](CC(C)(C)C)CO2` [Compound I-250], the “D activity at 1 μM (%)” value is on record as “+++ (+++ is >60%)”.

Take `Cc1cccc(C(C)C)c1-c1nc2nc(c1C)OC[C@@H](CC(C)(C)C)N(Cc1cnc3cc(C(C)C)n(C)c3n1)C(=O)c1cccc(c1)S(=O)(=O)N2` (atropisomer, axis not shown) [Compound I-180]: the “D activity at 1 μM (%)” value is recorded as “+++ (+++ is >60%)”.

Turning to `Cc1cccc(C)c1-c1cc2nc(n1)NS(=O)(=O)c1cccc(c1)C(=O)N(Cc1ncc3oc(C(C)(C)C)cc3n1)[C@H](CC1(C)CC1)CO2` [Compound I-252], the “D activity at 1 μM (%)” value is reported as “+++ (+++ is >60%)”.

As to `Cc1cccc(C)c1-c1cc2nc(n1)NS(=O)(=O)c1cccc(c1)C(=O)N(Cc1cnc3oc(C(C)C)c(C#N)c3n1)[C@H](CC(C)(C)C)CO2` [Compound I-74], the “D activity at 1 μM (%)” value is given as “+++ (+++ is >60%)”.

For `Cc1cccc(C)c1-c1cc2nc(n1)NS(=O)(=O)c1cccc(c1)C(=O)N(Cc1cnc3cn(C(C)C)nc3n1)[C@@H](CCC1(C)CC1)CO2` [Compound I-129], the “D activity at 1 μM (%)” value was “+++ (+++ is >60%)”.

As for `Cc1cccc(C(C)C)c1-c1nc2nc(c1C)OC[C@@H](CC(C)(C)C)N(Cc1cnc3oc(C(C)C)cc3n1)C(=O)c1cccc(c1)S(=O)(=O)N2` (atropisomer, axis not shown) [Compound I-135], the “D activity at 1 μM (%)” value is given as “+++ (+++ is >60%)”.

Consider `Cc1cccc(C)c1-c1cc2nc(n1)NS(=O)(=O)c1cccc(c1)C(=O)N(Cc1cnc3cc(C(C)C)n(CCO)c3n1)[C@H](CC(C)(C)C)CO2` [Compound I-160, (11R)-6-(2,6-Dimethylphenyl)-11-(2,2-dimethylpropyl)-12-[[5-(2-hydroxyethyl)-6-isopropyl-pyrrolo[2,3-b]pyrazin-3-yl]methyl]-2,2-dioxo-9-oxa-2λ^6-thia-3,5,12,19-tetrazatricyclo[12.3.1.14,8]nonadeca-1(18),4(19),5,7,14,16-hexaen-13-one], for which the “D activity at 1 μM (%)” value is on record as “+++ (+++ is >60%)”.

Turning to `Cc1cccc(C)c1-c1cc2nc(n1)NS(=O)(=O)c1cccc(c1)C(=O)N(Cc1ncc3oc(C4CC4)cc3n1)[C@H](COC(C)C)CO2` [Compound I-200], the “D activity at 1 μM (%)” value is “+++ (+++ is >60%)”.

Regarding `COCCn1c(C(C)C)cc2ncc(CN3C(=O)c4cccc(c4)S(=O)(=O)Nc4nc(cc(-c5c(C)cccc5C)n4)OC[C@H]3CC(C)(C)C)nc21` [Compound I-117, (11R)-6-(2,6-dimethylphenyl)-11-(2,2-dimethylpropyl)-12-[[6-isopropyl-5-(2-methoxyethyl)pyrrolo[2,3-b]pyrazin-3-yl]methyl]-2,2-dioxo-9-oxa-2λ^6-thia-3,5,12,19-tetrazatricyclo[12.3.1.14,8]nonadeca-1(18),4(19),5,7,14,16-hexaen-13-one], the “D activity at 1 μM (%)” value is listed as “+++ (+++ is >60%)”.

For the compound `Cc1cccc(C)c1-c1cc2nc(n1)NS(=O)(=O)c1cccc(c1)C(=O)N(Cc1cnc3oc(C(C)C)c(C)c3n1)[C@H](COC1CCCC1)CO2` [Compound I-119], the “D activity at 1 μM (%)” value is on record as “+++ (+++ is >60%)”.

Regarding `Cc1cccc(C)c1-c1cc2nc(n1)NS(=O)(=O)c1cccc(c1)C(=O)N(Cc1cnc3c(n1)C(=O)N(C(C)C)C3)[C@@H](CCC1(C)CC1)CO2` (stereo in doubt) [III-22], the “D activity at 1 μM (%)” value is recorded as “+++ (+++ is >60%)”.

For the compound `Cc1cccc(C)c1-c1cc2nc(n1)NS(=O)(=O)c1cccc(c1)C(=O)N(Cc1cnc3oc(C(C)C)cc3n1)[C@H](CC(C)(C)C)CC2` [Compound I-173], the “D activity at 1 μM (%)” value is given as “+++ (+++ is >60%)”.

Turning to `Cc1cccc(OC(C)C)c1-c1nc2nc(c1C)OC[C@@H](CC(C)(C)C)N(Cc1cnc3cc(C(C)(C)C)n(C)c3n1)C(=O)c1cccc(c1)S(=O)(=O)N2` (atropisomer, axis not shown) [Compound I-261], the “D activity at 1 μM (%)” value is given as “+++ (+++ is >60%)”.

Consider `Cc1cccc(C)c1-c1cc2nc(n1)NS(=O)(=O)c1cccc(c1)C(=O)N(Cc1nc3cc(C(C)(C)C)oc3cc1F)[C@H](COC(C)C)CO2` [Compound I-242], for which the “D activity at 1 μM (%)” value is “+++ (+++ is >60%)”.

Regarding `Cc1cccc(C)c1-c1cc2nc(n1)NS(=O)(=O)c1cccc(c1)C(=O)N(Cc1cnc3cc(C4CC4)n(C)c3n1)[C@H](CC(C)(C)C)CO2` [Compound I-150], the “D activity at 1 μM (%)” value is “+++ (+++ is >60%)”.

As for `Cc1cccc(C)c1-c1cc2nc(n1)NS(=O)(=O)c1cccc(c1)C(=O)N(Cc1cnc3oc(C(C)C)cc3n1)[C@H](CC(C)C)CCO2` [Compound I-5], the “D activity at 1 μM (%)” value is “+++ (+++ is >60%)”.

Turning to `Cc1cccc(C)c1-c1cc2nc(n1)NS(=O)(=O)c1cccc(c1)C(=O)N(Cc1nc3cc(C(C)(C)C)oc3cc1F)[C@H](CC13CC(C1)C3)CO2` [Compound I-244], the “D activity at 1 μM (%)” value is reported as “+++ (+++ is >60%)”.

For `Cc1cccc(C)c1-c1nc2nc(c1C)OC[C@@H](COC(C)C)N(Cc1cnc3oc(C4CC4)cc3n1)C(=O)c1cccc(c1)S(=O)(=O)N2` [Compound I-181], the “D activity at 1 μM (%)” value is on record as “+++ (+++ is >60%)”.

Consider `Cc1cccc(C)c1-c1cc2nc(n1)NS(=O)(=O)c1cccc(c1)C(=O)N(Cc1nc3c(cc(C(C)C)n3C)s1)[C@H](CC(C)(C)C)CO2` [III-20, (11R)-6-(2,6-dimethylphenyl)-11-(2,2-dimethylpropyl)-12-[(5-isopropyl-4-methyl-pyrrolo[2,3-d]thiazol-2-yl)methyl]-2,2-dioxo-9-oxa-2λ^6-thia-3,5,12,19-tetrazatricyclo[12.3.1.14,8]nonadeca-1(18),4(19),5,7,14,16-hexaen-13-one], for which the “D activity at 1 μM (%)” value is on record as “+++ (+++ is >60%)”.

As to `Cc1cccc(C)c1-c1cc2nc(n1)NS(=N)(=O)c1cccc(c1)C(=O)N(Cc1cnc3oc(C4CC4)cc3n1)[C@H](CC(C)(C)C)CO2` (single isomer, unassigned) [Compound I-147], the “D activity at 1 μM (%)” value is “+++ (+++ is >60%)”.

For `Cc1cccc(C)c1-c1cc2nc(n1)NS(=O)(=O)c1cccc(c1)C(=O)N(Cc1cnc3oc(C(C)C)cc3n1)[C@H](COC1CCCC1)CO2` [Compound I-120], the “D activity at 1 μM (%)” value is recorded as “+++ (+++ is >60%)”.

On to `Cc1cccc(C)c1-c1nc2nc(c1C)OC[C@@H](CC1(C)CC1)N(Cc1cnc3oc(C4(C)CC4)cc3n1)C(=O)c1cccc(c1)S(=O)(=O)N2` [Compound I-232], for which the “D activity at 1 μM (%)” value is “+++ (+++ is >60%)”.

Take `Cc1cccc(C)c1-c1cc2nc(n1)NS(=O)(=O)c1cccc(c1)C(=O)N(Cc1nc3cc(C4(C)CC4)oc3cc1F)[C@H](COC(C)C)CO2` [Compound I-253]: the “D activity at 1 μM (%)” value was “+++ (+++ is >60%)”.

Turning to `Cc1cccc(C)c1-c1cc2nc(n1)NS(=O)(=O)c1cccc(c1)C(=O)N(Cc1cnc3oc(C(C)C)c(Cl)c3n1)[C@H](COC(C)C)CO2` [Compound I-162], the “D activity at 1 μM (%)” value was “+++ (+++ is >60%)”.

Turning to `Cc1cccc(C)c1-c1cc2nc(n1)NS(=O)(=O)c1cccc(c1)C(=O)N(Cc1cnc3oc(C(C)C)cc3n1)[C@H](C=C1CCC1)CO2` [Compound I-153], the “D activity at 1 μM (%)” value was “+++ (+++ is >60%)”.

For `Cc1cccc(C)c1-c1cc2nc(n1)NS(=O)(=O)c1cccc(c1)C(=O)N(Cc1cnc3cn(C(C)C)nc3n1)[C@H](COC(C)C)CO2` [Compound I-132], the “D activity at 1 μM (%)” value is on record as “+++ (+++ is >60%)”.

With `Cc1cccc(C)c1-c1cc2nc(n1)NS(=O)(=O)c1cccc(c1)C(=O)N(Cc1cnc3oc(C(C)C)c(C(F)(F)F)c3n1)[C@H](CC13CC(C1)C3)CO2` [Compound I-114], the “D activity at 1 μM (%)” value is on record as “+++ (+++ is >60%)”.

The same assay, now with this note: with 44 nM potentiator and 18 μM Tezacaftor, 20% human serum.
Consider `Cc1cccc(C)c1-c1cc2nc(n1)NS(=O)(=O)c1cccc(c1)C(=O)N(Cc1cnc3oc(C(C)(C)C)cc3n1)[C@@H](C(C(C)C)C(C)C)CO2` [IV-36], for which the “D act. at 1 μM (%)” value is “+++ (+++ is >60%)”.

Turning to `CC(C)=Cc1cc2nc(CN3C(=O)c4cccc(c4)S(=O)(=O)Nc4nc(cc(-c5c(C)cccc5C)n4)OC[C@H]3CC3(C)CC3)cnc2o1` [IV-17, (11R)-6-(2,6-dimethylphenyl)-11-[(1-methylcyclopropyl)methyl]-12-[[6-(2-methylprop-1-enyl)furo[2,3-b]pyrazin-2-yl]methyl]-2,2-dioxo-9-oxa-2λ^6-thia-3,5,12,19-tetrazatricyclo[12.3.1.14,8]nonadeca-1(18),4(19),5,7,14,16-hexaen-13-one], the “D act. at 1 μM (%)” value is listed as “+++ (+++ is >60%)”.

Take `Cc1cccc(C)c1-c1cc2nc(n1)NS(=O)(=O)c1cccc(c1)C(=O)N(Cc1cnc3oc(C(C)(C)C)cc3n1)[C@H](CC(C)C)CO2` [IV-6]: the “D act. at 1 μM (%)” value is “+++ (+++ is >60%)”.

As for `Cc1cccc(C)c1-c1cc2nc(n1)NS(=O)(=O)c1cccc(c1)C(=O)N(Cc1cnc3oc([C@](C)(O)CO)cc3n1)[C@H](CC1(C)CC1)CO2` (single isomer, unassigned) [IV-14], the “D act. at 1 μM (%)” value is “+++ (+++ is >60%)”.

In the case of `Cc1cccc(C)c1-c1cc2nc(n1)NS(=O)(=O)c1cccc(c1)C(=O)N(Cc1cnc3oc(C(C)(C)C)cc3n1)[C@@H](CCC1(C)CC1)CO2` [IV-10], the “D act. at 1 μM (%)” value is on record as “+++ (+++ is >60%)”.

Another assay deals with T1, CFTR (F508del/MF-HBE cells). Briefly: Ussing chamber assay of CFTR-mediated short-circuit currents, Assay C (0.026 μM to 25 μM, 6 concentrations). The assay is classed as cell-based. The settings on record: with 33 nM potentiator and 18 μM Tezacaftor, 18-24 hours, 20% human serum, read-out: C Max activity (%). The essentials: as §1
Regarding `Cc1cccc(C)c1-c1nc2nc(c1C)OC[C@@H](CC(C)(C)C)N(Cc1cnc3oc(C(C)C)cc3n1)C(=O)c1cccc(c1)S(=O)(=O)N2` [Compound I-110], the Emax is above 60%.

Staying with this assay, now noted: with 33 nM potentiator and 18 μM Tezacaftor, 20% human serum.
As to `Cc1cccc(C)c1-c1cc2nc(n1)NS(=O)(=O)c1cccc(c1)C(=O)N(Cc1cnc3oc(C(C)(C)C)cc3n1)[C@@H](C(C(C)C)C(C)C)CO2` [IV-36], the EC50 was below 1000 nM.

For `Cc1cccc(C)c1-c1nc2nc(c1C)OC[C@@H](CC(C)(C)C)N(Cc1cnc3oc(C(C)C)cc3n1)C(=O)c1cccc(c1)S(=O)(=O)N2` [Compound I-110], the EC50 fell in the range of 1000 to 3000 nM.

Staying with this assay, now noted: with 33 nM potentiator and 18 μM Tezacaftor, 20% human serum, read-out: C Max activity (%).
In the case of `Cc1cccc(C)c1-c1cc2nc(n1)NS(=O)(=O)c1cccc(c1)C(=O)N(Cc1cnc3oc(C(C)(C)C)cc3n1)[C@@H](C(C(C)C)C(C)C)CO2` [IV-36], the Emax was above 60%.
